Laboratory results: patent US20090197960A1, “Method of Inhibiting Polyneuropathic Pain with 3-(2-Dimethylaminomethylcyclohexyl) Phenol” (Gruenenthal GmbH, priority 2008, published 2009)

Tests used:
[1] = test system: pain in diabetic polyneuropathy; conditions: number of patients treated for one patient to experience more than 50% pain relief; cited from earlier work
[2] = test system: pain in post-herpetic neuralgia; conditions: number of patients treated for one patient to experience more than 50% pain relief; cited from earlier work
[3] = test system: cold allodynia in mononeuropathic pain; assay: Mononeuropathic pain model according to Bennett (ischial nerve ligatures), cold allodynia on cold metal plate at 4° C.; format: in vivo, Sprague Dawley rats
Procedure: (§1) Male Sprague Dawley rats (140-180 g, Janvier, France) were kept under standard conditions (06.00-18.00 light, 18.00-06.00 darkness; 20-24° C. room temperature, 35-70% relative humidity; tap water and standard feed (ad libitum)) in groups of five animals in Macrolon type 4 cages.
The investigation was carried out according to Bennett et al., Pain, 1988, 33, 87-107.
Under pentobarbital anaesthesia (Narcocen, 60 mg/kg i.p., Merial GmbH, Germany), four loose ligatures were placed unilaterally on the right ischial nerve. On the paw innervated by the damaged nerve, the animals developed hypersensitivity which, after one week's convalescence, was quantified over a period of approx. four weeks using a cold metal plate at 4° C. (cold allodynia). The animals were observed on this plate for a period of 2 min. and the number of withdrawal responses by the damaged paw was measured. The action of the substance, relative to the preliminary value before administration of the substance, was determined over a period of one hour at four different times (15, 30, 45, 60 min after administration). The inhibition of cold allodynia at the individual measurement times was stated in percent relative to the individual pretest (% MPE), with the pretest corresponding to 0% MPE and complete inhibition (0 withdrawal responses per 2 min) to 100% MPE. Group size was n=10. The significance of a substance's action was determined on the basis of the percentage inhibition values relative to the vehicle group by bifactorial analysis of variance and post hoc Bonferroni analysis, the ED50 value by linear regression analysis for the individual measurement points or the area under the curve (AUC).

[4] = test system: cold allodynia in polyneuropathic pain; assay: Polyneuropathic pain model according to Authier (vincristine-induced), cold allodynia with acetone drop; format: in vivo, Sprague Dawley rats
Procedure: as §1
The investigation was carried out according to Authier et al., Neuroreport, 1999, 10, 965-8.
Three days after the final vincristine treatment, the animals had developed hypersensitivity to cold (cold allodynia) which continued over a period of three weeks. For testing, the animals were placed under a plastic cover on a grating and, after habituation, cold allodynia was quantified. To this end, a drop of acetone (10 μl) was carefully applied onto a hind paw with a syringe and a thin plastic tube. The number of induced withdrawal responses (shaking, stamping or licking) was recorded over a period of 30 sec. The cumulative number from 5 stimulations (at 5 min intervals from one another) was determined before and at different times after administration of the substance or the vehicle. The percentage inhibition value (% MPE) was determined in comparison with the particular pretest (0% MPE) and with the weekly vehicle control group (100% MPE=0 withdrawal responses). The size of the group was usually n=10. The significance of a substance's action was determined on the basis of the percentage inhibition value relative to the vehicle group by means of bifactorial analysis of variance and post hoc Bonferroni analysis, the ED50 value by linear regression analysis for the individual measurement points.

SMILES: N[C@@H](Cc1ccc(O)c(O)c1)C(=O)O [L-Dopa]
- NNT (Numbers Needed to Treat) [1]: 3.4

SMILES: COc1ccc2c(c1)[C@]13CCCC[C@@H]1[C@H](C2)N(C)CC3 [Oextromethorphan]
- NNT (Numbers Needed to Treat) [1]: 1.9

SMILES: COc1cc(CNC(=O)CCCC/C=C/C(C)C)ccc1O [Capsaicin]
- NNT (Numbers Needed to Treat) [1]: 5.9
- NNT (Numbers Needed to Treat) [2]: 5.3

SMILES: Cc1cccc(C)c1OCC(C)N (stereo not shown) [Mexiletine]
- NNT (Numbers Needed to Treat) [1]: 10.0

SMILES: NCC1(CC(=O)O)CCCCC1 [Gabapentin]
- NNT (Numbers Needed to Treat) [1]: 3.7
- NNT (Numbers Needed to Treat) [2]: 3.2

SMILES: NC(=O)N1c2ccccc2C=Cc2ccccc21 [Carbamazepine]
- NNT (Numbers Needed to Treat) [1]: 3.3

SMILES: CN(C)C[C@@H]1CCCC[C@H]1c1cccc(O)c1 [(1R,2R)-3-(2-Dimethylaminomethylcyclohexyl)phenol]
- inhibition of cold allodynia (in words) ([3]; 10-31.6 mg/kg i.p.): dose-dependent inhibition
- maximum effect ([3]; 15 min after administration of 31.6 mg/kg): 80 % MPE
- ED50 ([3]; Rattus norvegicus, ip, 0.5 h, 30 min after administration, i.p., mononeuropathic pain model, read-out: ED50 value (95% VB)): 17.6 mg/kg
- inhibition of cold allodynia, Mean ([3]; dose 10 (mg/kg i.p.), 15 min after administration): 22.16 % MPE
- inhibition of cold allodynia, Mean ([3]; dose 10 (mg/kg i.p.), 30 min after administration): 20.93 % MPE
- inhibition of cold allodynia, Mean ([3]; dose 10 (mg/kg i.p.), 45 min after administration): 8.60 % MPE
- inhibition of cold allodynia, Mean ([3]; dose 10 (mg/kg i.p.), 60 min after administration): 9.23 % MPE
- inhibition of cold allodynia, Mean ([3]; dose 21.5 (mg/kg i.p.), 15 min after administration): 56.62 % MPE
- inhibition of cold allodynia, Mean ([3]; dose 21.5 (mg/kg i.p.), 30 min after administration): 61.06 % MPE
- inhibition of cold allodynia, Mean ([3]; dose 21.5 (mg/kg i.p.), 45 min after administration): 34.96 % MPE
- inhibition of cold allodynia, Mean ([3]; dose 21.5 (mg/kg i.p.), 60 min after administration): 16.33 % MPE
- inhibition of cold allodynia, Mean ([3]; dose 31.6 (mg/kg i.p.), 15 min after administration): 80.03 % MPE
- inhibition of cold allodynia, Mean ([3]; dose 31.6 (mg/kg i.p.), 30 min after administration): 79.15 % MPE
- inhibition of cold allodynia, Mean ([3]; dose 31.6 (mg/kg i.p.), 45 min after administration): 61.68 % MPE
- inhibition of cold allodynia, Mean ([3]; dose 31.6 (mg/kg i.p.), 60 min after administration): 21.18 % MPE
- minimally active dose at which a statistically significant inhibition was obtained ([3]; i.p., mononeuropathic pain model): 21.5 mg/kg
- dose of significant inhibition, mononeuropathic versus polyneuropathic pain model ([4]; 21.5 mg/kg i.p. versus 4.64 mg/kg i.p.): more than four times higher
- inhibition of cold allodynia (in words) ([4]; 10-21.5 mg/kg i.p.): dose-dependent inhibition
- maximum effect ([4]; 30 min after administration of 21.5 mg/kg): 74 % MPE
- ED50 ([4]; Rattus norvegicus, ip, 0.5 h, 30 min after administration, i.p., polyneuropathic pain model, read-out: ED50 value (95% VB)): 5.7 mg/kg
- efficacy in polyneuropathic pain relative to mononeuropathic pain in an animal model ([4]; animal model): approx. four times greater
- inhibition of cold allodynia, Mean ([4]; dose 2.15 (mg/kg i.p.), 30 min): 48.4 % MPE
- inhibition of cold allodynia, Mean ([4]; dose 2.15 (mg/kg i.p.), 180 min): −37.7 % MPE
- inhibition of cold allodynia, Mean ([4]; dose 4.64 (mg/kg i.p.), 30 min): 67.9 % MPE
- inhibition of cold allodynia, Mean ([4]; dose 4.64 (mg/kg i.p.), 180 min): 22.6 % MPE
- inhibition of cold allodynia, Mean ([4]; dose 10 (first dose line of the table, i.p.), 30 min): −28.9 % MPE
- inhibition of cold allodynia, Mean ([4]; dose 10 (first dose line of the table, i.p.), 180 min): −22.2 % MPE
- inhibition of cold allodynia, Mean ([4]; dose 10 (fourth dose line of the table, mg/kg i.p.), 30 min): 58.7 % MPE
- inhibition of cold allodynia, Mean ([4]; dose 10 (fourth dose line of the table, mg/kg i.p.), 180 min): 20.8 % MPE
- inhibition of cold allodynia, Mean ([4]; dose 21.5 (mg/kg i.p.), 30 min): 74.2 % MPE
- inhibition of cold allodynia, Mean ([4]; dose 21.5 (mg/kg i.p.), 180 min): 15.2 % MPE
- minimally active dose at which a statistically significant inhibition was obtained ([4]; i.p., polyneuropathic pain model): 4.64 mg/kg

SMILES: COc1ccc2c3c1O[C@H]1C(=O)CC[C@@]4(O)[C@@H](C2)N(C)CC[C@]314 [Oxycodone]
- NNT (Numbers Needed to Treat) [2]: 2.5

SMILES: COc1cccc(C2(O)CCCCC2CN(C)C)c1 (stereo not shown) [Tramadol]
- NNT (Numbers Needed to Treat) [1]: 3.4

SMILES: CN(C)CCCN1c2ccccc2CCc2ccccc21 [Imipramine]
- NNT (Numbers Needed to Treat) [1]: 1.4
